From patent publication US8956648B2, “Calciumphosphate-based nanoparticles as carrier-systems for photodynamic therapy” (Biolitec PharmaMarketing Ltd, priority 2008, dated 2015) come the findings set out here.

The structures appear in SMILES notation.

The assay concerns human colon adenocarcinoma cell line HT29. Kind of assay: Photodynamic cell test on HT29 tumor cell line (XTT viability after laser irradiation). To be noted: HT29 cells, 24 h incubation, 652 nm diode laser 50 J cm^−2, XTT assay. In kind it is cell-based. How it is done: The photosensitizing activity was determined in the human colon adenocarcinoma cell line HT29. The HT29 cell lines were grown in DMEM (cc-pro GmbH) supplemented with 10% heat-inactivated fetal calf serum (FCS, cc-pro GmbH), 1% penicillin (10000 IU) and streptomycin (10,000 μg ml^−1, cc-pro GmbH). Cells were kept as a monolayer culture in a humidified incubator (5% CO2 in air at 37° C.).
A stock solution of the nanoparticle formulation was kept in the dark at 4° C. Further dilution was performed in RPMI 1640 medium without phenol red supplemented with 10% FCS to reach a final photosensitizer concentration of 2 or 10 μM, respectively.
2-10^4 cells ml^−1 were seeded in micro plates ([…]). Cells were incubated with fresh medium (RPMI without phenol red) containing 10% FCS with 2 or 10 μM of the photosensitizer for 24 h before light exposure. Before photosensitization, cells were washed, incubated with RPMI without phenol red and 10% FCS, then irradiated at room temperature with a 652 nm diode laser (Ceralas PDT 652, biolitec AG) at a fixed fluence rate of 100 mW cm^−2 (50 J cm^−2). […]
The cell viability was assessed by the XTT assay. […]
The absorbance of the samples was measured with a spectrophotometer (Tecan Infinite 200, Tecan Group Ltd.) at a wavelength of 490 nm. In order to measure reference absorbance (to measure non-specific readings) a wavelength of 630-690 nm was used. […]
A general note: Tetrazolium dyes change colour on reduction, which living cells bring about.

As to `O=P(O)(O)Oc1ccc(-c2c3nc(c(-c4ccc(OP(=O)(O)O)cc4)c4ccc([nH]4)c(-c4ccc(OP(=O)(O)O)cc4)c4nc(c(-c5ccc(OP(=O)(O)O)cc5)c5ccc2[nH]5)C=C4)C=C3)cc1` [pTPPP, 5,10,15,20-tetrakis(4-phosphonooxyphenyl)porphine], the photodynamic activity result was “no photodynamic activity”.
